From PMC11820219 (Nutrients, 2025)

Columns and labels:
[1] = target: T1, α-glucosidase (Saccharomyces cerevisiae, UniProt P53341); experiment: FT-IR secondary structure of α-glucosidase (amide I curve fitting); settings: astragalin 100 µg/mL
Description: The secondary conformation of α-glucosidase (1 U/mL) with or without sample treatment were detected with a Fourier transform infrared spectrometer (FT-IR) (VERTEX 7.0, BRUKER Co., Ltd., Bremen, Germany), by fitting the infrared amide type I curve (1600–1700 cm^−1).

[2] = system: high-glucose HepG2 cells; experiment: high-glucose (insulin-resistant) HepG2 model: glucose, TC, TG; type: cell-based, human; settings: for hypoglycemic effect (glucose level) compared between concentrations: 80 µg/mL, superior to acarbose positive control 5 µg/mL
Procedure: (§1) HepG2 cells at 10 to 40 generations were configured at a concentration of 4 × 10^5/mL. The cells suspension 100 µL was inoculated into a culture plate with DMEM (10 mL) containing glucose 4.5 g/L, 10% FBS, penicillin (1000 U/mL), and streptomycin ([…]), and cultivated in a 37 °C, 5% CO2 incubator.
When the cells were increased to about 80%, insulin at a concentration of 10^−5 mmol/L was treated for 24 h to induce the formation of insulin-resistant cells. […] After the treatment of 24 h with different samples, the glucose, TC, and TG content in the HepG2 cell supernatant was measured with glucose, TC, and TG assay kits.

[3] = system: AMPK signaling pathway (p-AMPK, ACC, GLUT4); experiment: Western blotting of AMPK pathway proteins in high-glucose HepG2 cells; type: cell-based, human
Procedure: Protein samples of 20 µg were separated by sodium dodecyl sulfate polyacrylamide gel electrophoresis in the Bio-Rad electrophoresis apparatus (Liuyi Biotechnology Co., Ltd., Beijing, China), and then transferred to polyvinylidene fluoride membranes. The electrophoretic proteins were sealed with 5% skimmed milk at room temperature for 1 h, and the membranes were incubated overnight with primary antibodies, including AMPK, phospho-AMPK (p-AMPK), acetyl CoA carboxylase (ACC, EC 6.4.1.2), and glucose transporter 4 (GLUT4) at 4 °C. After washing the membrane with phosphate-buffered saline tween-20, the membranes were incubated with secondary antibodies at room temperature for 1 h.

[4] = system: Müller cells; settings: high glucose; cited from earlier work
[5] = target: T1, α-glucosidase; experiment: fluorescence quenching of α-glucosidase (Stern–Volmer); type: binding
Description: The mixture was scanned using fluorescence spectroscopy (SpectraMax i3x, Molecular Devices, LLC., San Jose, CA, USA). The excitation wavelength was set at 280 nm, and the emission wavelength at 300–500 nm, with excitation and emission slit widths of 5 nm. Then, the following Stern–Volmer dynamic collision quenching equations were applied to calculate the fluorescence quenching parameters, including the quenching constants (KSV), quenching rate constant (Kq), binding constant (Ka), and binding site number (n). The equations are described below:(2) F0/F=1+KSV[Q]=1+Kqτ0[Q] (3) lgF0−F/F=lgKa+nlg[Q]

[6] = system: HepG2 cells; experiment: HepG2 cell survival rate (CCK-8); type: cell-based, human; settings: 0–200 µg/mL, 24 h
Procedure: as §1
Each sample was added to a 96-well plate with HepG2 cells and incubated in a 37 °C, 5% CO2 incubator for 24 h. After washing twice with PBS, the CCK-8 solution 100 µL was added, and incubated for another 4 h. The absorbance at 450 nm was measured using a Microplate reader (Bio TekGen5, BioTech Instruments, Co., Ltd., Winooski, VT, USA). The cells’ survival rates were calculated based on the formula as shown below:Cell survival rate (%) = A samples/A black control × 100%(5)

[7] = system: streptozocin-induced diabetic mice; design: method as in PMID 27687881; settings: cited from earlier work
[8] = target: T1, α-glucosidase; settings: reported compound; cited from earlier work
[9] = different concentrations, high-glucose HepG2 cells

T1 sequence (P53341 whole entry): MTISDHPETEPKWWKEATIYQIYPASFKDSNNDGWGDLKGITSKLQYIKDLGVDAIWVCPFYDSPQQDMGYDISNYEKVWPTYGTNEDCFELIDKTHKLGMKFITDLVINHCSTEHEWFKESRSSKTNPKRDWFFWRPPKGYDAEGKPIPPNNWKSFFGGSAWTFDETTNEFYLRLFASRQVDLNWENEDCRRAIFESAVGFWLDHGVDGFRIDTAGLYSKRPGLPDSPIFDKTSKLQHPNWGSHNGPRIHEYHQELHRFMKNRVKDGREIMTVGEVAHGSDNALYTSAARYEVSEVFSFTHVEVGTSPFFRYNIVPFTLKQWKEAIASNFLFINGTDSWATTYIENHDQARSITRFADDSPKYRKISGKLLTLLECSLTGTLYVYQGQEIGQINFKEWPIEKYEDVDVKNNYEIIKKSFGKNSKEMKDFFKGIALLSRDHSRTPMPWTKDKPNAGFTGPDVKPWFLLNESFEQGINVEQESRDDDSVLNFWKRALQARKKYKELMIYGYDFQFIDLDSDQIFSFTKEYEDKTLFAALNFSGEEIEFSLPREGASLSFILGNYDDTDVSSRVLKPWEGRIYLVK

## O=c1c(O[C@@H]2O[C@H](CO)[C@@H](O)[C@H](O)[C@H]2O)c(-c2ccc(O)cc2)oc2cc(O)cc(O)c12 [astragalin, kaempferol-3-O-β-D-glucopyranoside]
[1]; without astragalin 11.72%
  β-turn content of α-glucosidase with astragalin: 19.30%
[1]; without astragalin 11.94%
  β-sheet content of α-glucosidase with astragalin: 4.71%
[1]; without astragalin 21.08%
  random coil content of α-glucosidase with astragalin: 38.79%
[2]
  hypoglycemic effect (glucose level) compared between concentrations: the activity was the strongest
[2]; listed as Astragalin
  hypoglycemic effect (glucose level) compared between concentrations: best hypoglycemic effect
[2]; 20, 80, and 200 µg/mL, 24 h, insulin-induced high-glucose HepG2
  glucose level in the cells: reduced the glucose level in the cells
[2]; [9]
  TC level: reduced the levels of TC
  TG level: reduced the levels of TC and TG
[3]; 20 µg/mL
  GLUT4 protein expression level: significantly increased
[3]; 80 µg/mL
  ACC protein expression level: significantly down-regulated
[3]; 80 and 200 µg/mL
  p-AMPK protein expression level: up-regulated
[4]
  vascular endothelial growth factor over-expression: decreased the over-expression
[5]; 298 K
  KSV (quenching constant): 9.093 ×10^3 Lmol^−1
  n (binding site number): 1.238
[5]; 304 K
  KSV (quenching constant): 7.903 ×10^3 Lmol^−1
  n (binding site number): 1.1905
[5]; 310 K
  KSV (quenching constant): 7.061 ×10^3 Lmol^−1
  n (binding site number): 0.8446
[5]; free enzyme around 346 nm, excitation 280 nm, 298 K
  maximum fluorescence emission wavelength of α-glucosidase with astragalin: 349 nm
[5]; under three temperature conditions, compared with maximum diffusion collision quenching constant
  Kq values: higher than 2.0 × 10^10 Lmol^−1 s^−1
[6]
  CCK-8 cell survival: within the safe range
[7]
  hypoglycemic effects in diabetic mice: improved the glucose tolerance and reduced the level of glucose

## COc1cc(OC)c2c(ccc3cc(OC)c(O)cc32)c1 [batatasin I]
[8]
  IC50: 2550 µM
